Data set [1] concerns the target T1, Organic anion transporter 3 (Homo sapiens, UniProt Q8TCC7).
T1 sequence (Q8TCC7 whole entry): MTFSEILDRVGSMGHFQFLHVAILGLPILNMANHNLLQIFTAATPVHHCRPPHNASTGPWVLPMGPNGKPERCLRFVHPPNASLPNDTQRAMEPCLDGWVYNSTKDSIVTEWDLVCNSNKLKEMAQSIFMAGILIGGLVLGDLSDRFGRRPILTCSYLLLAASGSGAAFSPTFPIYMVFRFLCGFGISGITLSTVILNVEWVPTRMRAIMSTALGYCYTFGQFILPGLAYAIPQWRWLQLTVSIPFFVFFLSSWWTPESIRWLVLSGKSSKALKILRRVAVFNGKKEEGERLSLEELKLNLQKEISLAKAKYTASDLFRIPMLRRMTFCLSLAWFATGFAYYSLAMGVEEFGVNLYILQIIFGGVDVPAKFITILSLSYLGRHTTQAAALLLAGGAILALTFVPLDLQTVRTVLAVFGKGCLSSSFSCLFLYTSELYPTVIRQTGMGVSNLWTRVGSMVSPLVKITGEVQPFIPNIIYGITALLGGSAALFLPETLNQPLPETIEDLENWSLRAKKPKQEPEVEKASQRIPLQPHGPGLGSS
Nature of the data set: (§1) TP_TRANSPORTER: uptake in Xenopus laevis oocytes. The data set is classed as functional, cell-based. The note with it: oocyte.

Data set [2] concerns the target T1, Organic anion transporter 3. Nature of the data set: TP_TRANSPORTER: inhibition of E1S uptake (E1S: 0.05 uM, Ibuprofen: 5 uM) in Xenopus laevis oocytes. It is filed as functional, cell-based. The note with it: oocyte.
Data set [3] shares this target. Description: TP_TRANSPORTER: inhibition of E1S uptake (E1S: 0.05 uM, Bumetanide: 5 uM) in Xenopus laevis oocytes. It is filed as functional, cell-based. The following applies: oocyte.
Data set [4] has the same target. Description: TP_TRANSPORTER: inhibition of E1S uptake (E1S: 0.05 uM, BSP: 5 uM) in Xenopus laevis oocytes. The data set is classed as functional, cell-based. The following applies: oocyte.
The target is the same in data set [5]. Nature of the data set: TP_TRANSPORTER: inhibition of E1S uptake (E1S: 0.05 uM, Indomethacin: 5 uM) in Xenopus laevis oocytes. It is filed as functional, cell-based. The note with it: oocyte.
Data set [6] shares this target. Nature of the data set: TP_TRANSPORTER: inhibition of E1S uptake (E1S: 0.05 uM, Corticosterone: 5 uM) in Xenopus laevis oocytes. The data set is classed as functional, cell-based. The following applies: oocyte.
The target is the same in data set [7]. Description: TP_TRANSPORTER: inhibition of E1S uptake (E1S: 0.05 uM, Ouabain: 5 uM) in Xenopus laevis oocytes. It is filed as functional, cell-based. The following applies: oocyte.
Data set [8] shares this target. Nature of the data set: TP_TRANSPORTER: inhibition of E1S uptake (E1S: 0.05 uM, Diclofenac: 5 uM) in Xenopus laevis oocytes. The data set is classed as functional, cell-based. The note with it: oocyte.
Data set [9] has the same target. Description: TP_TRANSPORTER: inhibition of E1S uptake (E1S: 0.05 uM, DHEAS: 5 uM) in Xenopus laevis oocytes. The data set is classed as functional, cell-based. The note with it: oocyte.
The target is the same in data set [10]. Description: TP_TRANSPORTER: inhibition of E1S uptake (E1S: 0.05 uM, Quinidine: 5 uM) in Xenopus laevis oocytes. It is filed as functional, cell-based. The note with it: oocyte.
Data set [11] shares this target. Description: TP_TRANSPORTER: inhibition of E1S uptake (E1S: 0.05 uM, PCG: 5 uM) in Xenopus laevis oocytes. The following applies: oocyte. The data set is classed as functional, cell-based.
The target is the same in data set [12]. Nature of the data set: TP_TRANSPORTER: inhibition of E1S uptake (E1S: 0.05 uM, Guanidine: 5 uM) in Xenopus laevis oocytes. The following applies: oocyte. It is filed as functional, cell-based.
Data set [13] shares this target. Nature of the data set: TP_TRANSPORTER: inhibition of E1S uptake (E1S: 0.05 uM, Glutarate: 5 uM) in Xenopus laevis oocytes. The data set is classed as functional, cell-based. The following applies: oocyte.
Data set [14] has the same target. Description: TP_TRANSPORTER: inhibition of E1S uptake (E1S: 0.05 uM, AZT: 5 uM) in Xenopus laevis oocytes. The data set is classed as functional, cell-based. The note with it: oocyte.
Data set [15] has the same target. Nature of the data set: TP_TRANSPORTER: inhibition of E1S uptake (E1S: 0.05 uM, Probenecid: 5 uM) in Xenopus laevis oocytes. The data set is classed as functional, cell-based. The following applies: oocyte.
Substrate in data set [16]: CN/C(=N/CCSCc1nc[nH]c1C)NC#N
Description: cells, lysate or membranes named.

Substrate in data set [17]: C[C@]12CC[C@@H]3c4ccc(OS(=O)(=O)O)cc4CC[C@H]3[C@@H]1CCC2=O
The description is as §1. The data set is classed as functional, cell-based, Oocyte.

Substrate in data set [18]: CN(Cc1cnc2nc(N)nc(N)c2n1)c1ccc(C(=O)N[C@@H](CCC(=O)O)C(=O)O)cc1
The data set is described as §1. It is filed as functional, cell-based, Oocyte.

Substrate in data set [19]: Nc1ccc(C(=O)NCC(=O)O)cc1
The description is as §1. It is filed as functional, cell-based, Oocyte.

Consider `CC(C)Cc1ccc(C(C)C(=O)O)cc1` (centres undefined) [IBUPROFEN], for which the Activity result in [1] is “is not a substrate [-]”; in data set [2] it was “inhibitor [(at a rough estimate) 10 % of control]”.

`O=C(O)CCC(=O)O` [SUCCINIC ACID]: in [1], the Activity entry was “is not a substrate [-]”.

On to `CCCCNc1cc(C(=O)O)cc(S(N)(=O)=O)c1Oc1ccccc1` [BUMETANIDE], for which, in [3], the Activity result was “inhibitor [(at a rough estimate) 10 % of control]”.

Consider `O=C1OC(c2ccc(O)c(S(=O)(=O)[O-])c2)(c2ccc(O)c(S(=O)(=O)[O-])c2)c2c(Br)c(Br)c(Br)c(Br)c21.[Na+].[Na+]` [SULFOBROMOPHTHALEIN SODIUM], for which the Activity result in data set [4] is “inhibitor [(at a rough estimate) 55 % of control]”.

Take `O=C(O)c1ccccc1O` [SALICYLIC ACID]: the Activity entry in [1] is “substrate [+]”.

In the case of `COc1ccc2c(c1)c(CC(=O)O)c(C)n2C(=O)c1ccc(Cl)cc1` [INDOMETHACIN], the Activity entry in data set [5] is “inhibitor [(at a rough estimate) 15 % of control]”.

In the case of `C[C@]12C[C@H](O)[C@H]3[C@@H](CCC4=CC(=O)CC[C@@]43C)[C@@H]1CC[C@@H]2C(=O)CO` [CORTICOSTERONE], the Activity entry in data set [6] is “inhibitor [(at a rough estimate) 30 % of control]”.

For `C[C@@H]1O[C@@H](O[C@H]2C[C@@H](O)[C@]3(CO)[C@H]4[C@H](O)C[C@]5(C)[C@@H](C6=CC(=O)OC6)CC[C@]5(O)[C@@H]4CC[C@]3(O)C2)[C@H](O)[C@H](O)[C@H]1O` [OUABAIN], the Activity entry in data set [7] was “is not an inhibitor [-]”.

Take `O=C(O)Cc1ccccc1Nc1c(Cl)cccc1Cl` [DICLOFENAC]: in [8], the Activity result is “inhibitor [(at a rough estimate) 10 % of control]”.

Regarding `C[C@]12CC[C@H](OS(=O)(=O)O)CC1=CC[C@@H]1[C@@H]2CC[C@]2(C)C(=O)CC[C@@H]12` [PRASTERONE SULFURIC ACID], the Activity entry in data set [1] is “substrate [+]”; in data set [9], “inhibitor [(at a rough estimate) 10 % of control]”.

Turning to `C[C@@H]1Cc2c(Cl)cc(C(=O)N[C@@H](Cc3ccccc3)C(=O)O)c(O)c2C(=O)O1` [3R14S-OCHRATOXIN A], in data set [1], the Activity result is “substrate [+]”.

Consider `C=C[C@H]1C[N@@]2CC[C@H]1C[C@@H]2[C@@H](O)c1ccnc2ccc(OC)cc12` [QUINIDINE], for which the Activity result in [10] was “inhibitor [(at a rough estimate) 55 % of control]”.

With `C[C@]12CC[C@@H]3c4ccc(O)cc4CC[C@H]3[C@@H]1CC[C@@H]2O[C@@H]1O[C@H](C(=O)O)[C@@H](O)[C@H](O)[C@H]1O` [ESTRADIOL 17B GLUCURONIDE], in [1], the Activity entry is “substrate [+]”.

Consider `Nc1nc2c(ncn2COCCO)c(=O)[nH]1` [ACYCLOVIR], for which the Activity entry in data set [1] was “is not a substrate [-]”.

As for `CC1(C)S[C@@H]2[C@H](NC(=O)Cc3ccccc3)C(=O)N2[C@H]1C(=O)O` [PENICILLIN G], in [11], the Activity result is “inhibitor [(at a rough estimate) 35 % of control]”.

Consider `N=C(N)N` [GUANIDINE], for which the Activity result in data set [12] was “is not an inhibitor [-]”.

With `O=C(O)CCCC(=O)O` [GLUTARATE], the results for the Activity result in [1] and in data set [13] were “substrate [+]” and “inhibitor [(at a rough estimate) 35 % of control]”, respectively.

On to `Cc1cn([C@H]2C[C@H](N=[N+]=[N-])[C@@H](CO)O2)c(=O)[nH]c1=O` [ZIDOVUDINE], for which, in data set [14], the Activity entry is “is not an inhibitor [-]”.

Turning to `O=C(O)[C@H]1O[C@@H](O)[C@H](O)[C@@H](O)[C@@H]1O` [GLUCURONATE], the Activity result in data set [1] is “is not a substrate [-]”.

Turning to `CCCN(CCC)S(=O)(=O)c1ccc(C(=O)O)cc1` [PROBENECID], the Activity result in [15] is “inhibitor [(at a rough estimate) 10 % of control]”.

`O=c1[nH]c(=O)c2[nH]c(=O)[nH]c2[nH]1` [URIC ACID]: the Activity result in [1] was “substrate [+]”.

Consider `CCCC(CCC)C(=O)O` [VALPROIC ACID], for which the Activity entry in data set [1] was “is not a substrate [-]”.

B1: Organic anion transporter 3 (Homo sapiens) (protein)
chain: T1 sequence (Q8TCC7 whole entry)
In the case of B1, the Km (commonly the concentration of substrate that gives half-maximal velocity) stood at 57.4 µM in [16], 3.1 µM in data set [17], 10.9 µM in data set [18] and 87.2 µM in [19].

Source of the values: ChEMBL document CHEMBL2074134, “Identification and characterization of human organic anion transporter 3 expressing predominantly in the kidney” (Mol Pharmacol, 2001).
